pEC50: −log10 of the molar value. Like-named read-outs stand apart in the source and are kept apart here. Numbered stars: 1 amine (or outer) side, 2 acyl side, 3 side chain; on linkers, the order of the positions; unused ones are H or OH. Square brackets hold non-standard residues; d marks the D form. Side chains are listed from the residue outwards. Peptide text beside a SMILES is read from it. * marks the point of attachment. ξ: configuration not given here. Dap(Nα-HOOC(CH2)16CO)OH = O=C(O)CCCCCCCCCCCCCCCCC(=O)N[C@@H](CN*)C(=O)O; X5 = O=C(O)CCCCCCCCCCCCCCCc1cn(-c2ccc(C[C@H](N[*:1])C(=O)[*:2])cc2)nn1; X3 = O=C(O)CCCCCCCCCCCCCCCc1cnnn1-c1ccc(C[C@H](N[*:1])C(=O)[*:2])cc1; X6 = O=C([C@H](CCc1ccc(OC(=O)[*:3])cc1)N[*:1])[*:2]; X7 = C[C@@](Cc1ccc(-c2ccccc2)cc1)(N[*:1])C(=O)[*:2]; X4 = C[C@](Cc1ccc(-c2ccccc2)cc1)(N[*:1])C(=O)[*:2]; Bip = N[C@@H](Cc1ccc(-c2ccccc2)cc1)C(=O)O; C18 diacid = O=C(O)CCCCCCCCCCCCCCCCC(=O)*; Hydrocinnamoyl(4-I) = O=C(CCc1ccc(I)cc1)*; X2 = O=C(CCc1ccc(I)cc1)N[C@@H](CN*)C(=O)O; αMePhe(2-F) = C[C@](N)(Cc1ccccc1F)C(=O)O; ξαMePhe(2-F) = CC(N)(Cc1ccccc1F)C(=O)O; αMeF = C[C@](N)(Cc1ccccc1)C(=O)O; αMeP = C[C@@]1(C(=O)O)CCCN1; dDap = NC[C@@H](N)C(=O)O; ξαMeP = CC1(C(=O)O)CCCN1; ξαMeS = CC(N)(CO)C(=O)O; AEEA = NCCOCCOCC(=O)O; Aib = CC(C)(N)C(=O)O
Molecular target: T1, hGLP1 receptor (Homo sapiens, UniProt P43220)
T1 construct: expressed in transfected cells; host or cells: HEK (human embryonic kidney) cells co-expressing hGLP1 receptor and a CRE-Luciferase construct
T1 sequence (P43220 24-463): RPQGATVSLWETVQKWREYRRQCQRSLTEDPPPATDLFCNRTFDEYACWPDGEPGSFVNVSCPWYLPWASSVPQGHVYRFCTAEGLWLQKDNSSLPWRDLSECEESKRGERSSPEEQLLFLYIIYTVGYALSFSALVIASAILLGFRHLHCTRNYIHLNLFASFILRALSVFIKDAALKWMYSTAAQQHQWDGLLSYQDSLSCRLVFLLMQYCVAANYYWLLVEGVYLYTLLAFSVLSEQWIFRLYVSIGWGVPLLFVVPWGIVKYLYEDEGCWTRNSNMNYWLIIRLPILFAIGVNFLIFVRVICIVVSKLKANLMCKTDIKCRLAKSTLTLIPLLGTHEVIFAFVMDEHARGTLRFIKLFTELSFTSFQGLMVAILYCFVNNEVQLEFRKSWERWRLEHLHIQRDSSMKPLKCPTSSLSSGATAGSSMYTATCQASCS
Test: cAMP HTRF agonist assay in HEK cells co-expressing the hGLP1 receptor and CRE-Luciferase construct
Assay type: cell-based
Settings: for potency compared with the parent peptide analog (1-2), in words: replacement of Aib2, versus parent 1-2; for EC50: 0.1% albumin; for pEC50: cell annotated (0% albumin), read-out: cAMP EC50
Protocol: Human embryonic kidney cells (HEK) co-expressing the hGLP1 receptor and CRE-Luciferase construct were used to determine agonist potency in this assay. The cells were thawed briefly at 37° C., transferred to a sterile tube and re-suspended in complete media at 37° C. Cells were centrifuged at 1000 rpm for 5 minutes and cells collected; cells were re-suspended in assay buffer consisting of DPBS (GIBCO) with 500 μM of the phosphodiesterase inhibitor IBMX. […] The optimal cell density was determined to be 1000 cells/well; cells were added to wells in 384-well plates containing appropriate pre-prepared dilutions of compounds (test peptides or reference compound exendin-4), sealed and incubated with CO2 for 30 min. Test peptide solutions were diluted from 10 mM stock solutions; for most peptides an initial run was performed in duplicate from a maximal concentration of 1.0 μM, with 11 concentrations tested for each peptide using serial 1:3 dilution from this maximal concentration. […] The agonist assay was a homogeneous time-resolved fluorescence (HTRF) assay (Cisbio).
Following incubation of the cells for 30 minutes with test or reference peptides, 5 μL of the cAMP acceptor cAMP-d2, prepared previously as a working solution from frozen stock (1:20 dilution), was added to each well of the assay plate, along with 5 μL of anti-cAMP antibody-cryptate working solution (diluted 1:20 from frozen stock). The wells were incubated for 1 hour at room temperature, and fluorescence was then read at 665 and 615 nm with an Envision reader with TRF laser. Data were saved and analyzed using Prism software (GraphPad). Concentration-response analysis was performed using 4-parameter logistic fits of the resulting data, and EC50 values obtained for each test and reference compound.

[1] = read-out: cAMP EC50, nM (0.1% albumin), Table 6, C-terminal PK-modifier conjugates

Row | SMILES | pEC50 (Table 6) | EC50 [1] | also measured
1 | CC(C)[C@H](NC(=O)[C@@H](N)Cc1c[nH]cn1)C(=O)N[C@@H](CCC(=O)O)C(=O)NCC(=O)N[C@H](C(=O)N[C@@](C)(Cc1ccccc1F)C(=O)N[C@H](C(=O)N[C@@H](CO)C(=O)N[C@@H](CC(=O)O)C(=O)N[C@@H](Cc1ccc(-c2ccccc2)cc1)C(=O)N[C@@H](Cc1ccc(-c2ccccc2)cc1)C(N)=O)[C@@H](C)O)[C@@H](C)O [3-39, H2N-His-Val-Glu-Gly-Thr-α-MePhe(2-F)-Thr-Ser-Asp-Bip-Bip-C(O)NH2] (H-HVEGT[αMePhe(2-F)]TSD[Bip][Bip]-NH2) | – | – | potency compared with the parent peptide analog (1-2), in words: slightly less potency
2 | C[C@@H](O)[C@H](NC(=O)CNC(=O)[C@H](CCC(=O)O)NC(=O)C(C)(C)NC(=O)[C@@H](N)Cc1c[nH]cn1)C(=O)N[C@@](C)(Cc1ccccc1F)C(=O)N[C@H](C(=O)N[C@@H](CO)C(=O)N[C@@H](CC(=O)O)C(=O)N[C@@H](Cc1ccc(-c2ccccc2)cc1)C(=O)N[C@@H](CCc1ccc(OC(=O)NCCOCCOCC(=O)NCCOCCOCC(=O)NC[C@H](NC(=O)CCCCCCCCCCCCCCCCC(=O)O)C(=O)O)cc1)C(N)=O)[C@@H](C)O [4-39, H2N-His-Aib-Glu-Gly-Thr-α-MePhe(2-F)-Thr-Ser-Asp-Bip-Hph(4-OR5)-C(O)NH2] (H-H[Aib]EGT[αMePhe(2-F)]TSD[Bip][X6]([AEEA-AEEA-Dap(Nα-HOOC(CH2)16CO)OH])-NH2) | – | 232 nM | –
3 | C[C@@H](O)[C@H](NC(=O)CNC(=O)[C@H](CCC(=O)O)NC(=O)C(C)(C)NC(=O)[C@@H](N)Cc1c[nH]cn1)C(=O)N[C@@](C)(Cc1ccccc1F)C(=O)N[C@H](C(=O)N[C@@H](CO)C(=O)N[C@@H](CC(=O)O)C(=O)N[C@@H](Cc1ccc(-c2ccccc2)cc1)C(=O)N[C@@H](CCc1ccc(OC(=O)NCCOCCOCC(=O)NCCOCCOCC(=O)NCCOCCOCC(=O)NC[C@H](NC(=O)CCc2ccc(I)cc2)C(=O)O)cc1)C(N)=O)[C@@H](C)O [4-40, H2N-His-Aib-Glu-Gly-Thr-α-MePhe(2-F)-Thr-Ser-Asp-Bip-Hph(4-OR6)-C(O)NH2] (H-H[Aib]EGT[αMePhe(2-F)]TSD[Bip][X6]([AEEA-AEEA-AEEA-X2])-NH2) | – | 49.7 nM | –
4 | C[C@@H](O)[C@H](NC(=O)CNC(=O)[C@H](CCC(=O)O)NC(=O)C(C)(C)NC(=O)[C@@H](N)Cc1c[nH]cn1)C(=O)N[C@@](C)(Cc1ccccc1F)C(=O)N[C@H](C(=O)N[C@@H](CO)C(=O)N[C@@H](CC(=O)O)C(=O)N[C@@H](Cc1ccc(-c2ccccc2)cc1)C(=O)N[C@@H](Cc1ccc(-c2ccccc2)cc1)C(=O)NCCOCCOCC(=O)NCCOCCOCC(=O)NCCOCCOCC(=O)N[C@H](CNC(=O)CCc1ccc(I)cc1)C(N)=O)[C@@H](C)O [4-47, H2N-His-Aib-Glu-Gly-Thr-α-MePhe(2-F)-Thr-Ser-Asp-Bip-Bip-C(O)NH-RY9] (H-H[Aib]EGT[αMePhe(2-F)]TSD[Bip][Bip][AEEA][AEEA][AEEA][dDap](Hydrocinnamoyl(4-I))-NH2) | – | 0.6 nM | –
5 | C[C@@H](O)[C@H](NC(=O)CNC(=O)[C@H](CCC(=O)O)NC(=O)C1(C)CCCN1C(=O)[C@@H](N)Cc1c[nH]cn1)C(=O)NC(C)(Cc1ccccc1F)C(=O)NC(C)(CO)C(=O)N[C@@H](CO)C(=O)N[C@@H](CC(=O)O)C(=O)N[C@@H](Cc1ccc(-c2ccccc2)cc1)C(=O)N[C@@H](Cc1ccc(-c2ccccc2)cc1)C(N)=O (stereo partly drawn) [3-59] (H-H[ξαMeP]EGT[ξαMePhe(2-F)][ξαMeS]SD[Bip][Bip]-NH2) | – | – | EC50 (cAMP EC50, nM (0.1% albumin), Table 4, N-terminal modifications): 20.9 nM
6 | C[C@@H](O)[C@H](NC(=O)CNC(=O)[C@H](CCC(=O)O)NC(=O)C(C)(C)NC(=O)[C@@H](N)Cc1c[nH]cn1)C(=O)N[C@@](C)(Cc1ccccc1)C(=O)N[C@H](C(=O)N[C@@H](CO)C(=O)N[C@@H](CC(=O)O)C(=O)N[C@@H](Cc1ccc(-c2ccccc2)cc1)C(=O)N[C@@H](Cc1ccc(-c2ccccc2)cc1)C(N)=O)[C@@H](C)O [3-17, H2N-His-Aib-Glu-Gly-Thr-α-MePhe-Thr-Ser-Asp-Bip-Bip-C(O)NH2] (H-H[Aib]EGT[αMeF]TSD[Bip][Bip]-NH2) | – | – | pEC50 (Table 1): 10.10
7 | C[C@@H](O)[C@H](NC(=O)CNC(=O)[C@H](CCC(=O)O)NC(=O)[C@]1(C)CCCN1C(=O)[C@@H](N)Cc1c[nH]cn1)C(=O)N[C@@](C)(Cc1ccccc1F)C(=O)N[C@H](C(=O)N[C@@H](CO)C(=O)N[C@@H](CC(=O)O)C(=O)N[C@@H](Cc1ccc(-c2ccccc2)cc1)C(=O)N[C@@H](Cc1ccc(-c2ccccc2)cc1)C(N)=O)[C@@H](C)O [3-40, H2N-His-α-MePro-Glu-Gly-Thr-α-MePhe(2-F)-Thr-Ser-Asp-Bip-Bip-C(O)NH2] (H-H[αMeP]EGT[αMePhe(2-F)]TSD[Bip][Bip]-NH2) | – | – | potency compared with the parent peptide analog (1-2), in words: significantly greater potency
8 | C[C@@H](O)[C@H](NC(=O)CNC(=O)[C@H](CCC(=O)O)NC(=O)C(C)(C)NC(=O)[C@@H](N)Cc1c[nH]cn1)C(=O)N[C@@](C)(Cc1ccccc1F)C(=O)N[C@H](C(=O)N[C@@H](CO)C(=O)N[C@@H](CC(=O)O)C(=O)N[C@@H](Cc1ccc(-c2ccccc2)cc1)C(=O)N[C@@H](Cc1ccc(-c2ccccc2)cc1)C(=O)NCCOCCOCC(=O)NCCOCCOCC(=O)N[C@H](CNC(=O)CCCCCCCCCCCCCCCCC(=O)O)C(N)=O)[C@@H](C)O [4-46, H2N-His-Aib-Glu-Gly-Thr-α-MePhe(2-F)-Thr-Ser-Asp-Bip-Bip-C(O)NH-RY8] (H-H[Aib]EGT[αMePhe(2-F)]TSD[Bip][Bip][AEEA][AEEA][dDap](C18 diacid)-NH2) | – | 5.4 nM | –

The next lines start with results.

Row | pEC50 (Table 6) | SMILES | EC50 [1] | also measured
9 | 10.40 | C[C@@H](O)[C@H](NC(=O)CNC(=O)[C@H](CCC(=O)O)NC(=O)[C@]1(C)CCCN1C(=O)[C@@H](N)Cc1c[nH]cn1)C(=O)N[C@@](C)(Cc1ccccc1F)C(=O)N[C@H](C(=O)N[C@@H](CO)C(=O)N[C@@H](CC(=O)O)C(=O)N[C@@H](Cc1ccc(-c2ccccc2)cc1)C(=O)N[C@@H](Cc1ccc(-n2cc(CCCCCCCCCCCCCCCC(=O)O)nn2)cc1)C(N)=O)[C@@H](C)O [4-70-i1, H2N-His-α-MePro-Glu-Gly-Thr-α-MePhe(2-F)-Thr-Ser-Asp-Bip-FN3(C18 acid)-C(O)NH2] (H-H[αMeP]EGT[αMePhe(2-F)]TSD[Bip][X5]-NH2) | – | –
10 | 10.30 | C[C@@H](O)[C@H](NC(=O)CNC(=O)[C@H](CCC(=O)O)NC(=O)[C@]1(C)CCCN1C(=O)[C@@H](N)Cc1c[nH]cn1)C(=O)N[C@@](C)(Cc1ccccc1F)C(=O)N[C@H](C(=O)N[C@@H](CO)C(=O)N[C@@H](CC(=O)O)C(=O)N[C@@H](Cc1ccc(-c2ccccc2)cc1)C(=O)N[C@@](C)(Cc1ccc(-c2ccccc2)cc1)C(N)=O)[C@@H](C)O [4-73-i1, H2N-His-α-MePro-Glu-Gly-Thr-α-MePhe(2F)-Thr-Ser-Asp-Bip-α-MeBip-C(O)NH2] (H-H[αMeP]EGT[αMePhe(2-F)]TSD[Bip][X7]-NH2) | – | –
11 | 9.15 | C[C@@H](O)[C@H](NC(=O)CNC(=O)[C@H](CCC(=O)O)NC(=O)[C@]1(C)CCCN1C(=O)[C@@H](N)Cc1c[nH]cn1)C(=O)N[C@@](C)(Cc1ccccc1F)C(=O)N[C@H](C(=O)N[C@@H](CO)C(=O)N[C@@H](CC(=O)O)C(=O)N[C@@H](Cc1ccc(-c2ccccc2)cc1)C(=O)N[C@@H](Cc1ccc(-n2nncc2CCCCCCCCCCCCCCCC(=O)O)cc1)C(N)=O)[C@@H](C)O [4-70-i2, H2N-His-α-MePro-Glu-Gly-Thr-α-MePhe(2-F)-Thr-Ser-Asp-Bip-FN3(C18 acid)-C(O)NH2] (H-H[αMeP]EGT[αMePhe(2-F)]TSD[Bip][X3]-NH2) | – | –
12 | 9.70 | C[C@@H](O)[C@H](NC(=O)CNC(=O)[C@H](CCC(=O)O)NC(=O)[C@]1(C)CCCN1C(=O)[C@@H](N)Cc1c[nH]cn1)C(=O)N[C@@](C)(Cc1ccccc1F)C(=O)N[C@H](C(=O)N[C@@H](CO)C(=O)N[C@@H](CC(=O)O)C(=O)N[C@@H](Cc1ccc(-c2ccccc2)cc1)C(=O)N[C@](C)(Cc1ccc(-c2ccccc2)cc1)C(N)=O)[C@@H](C)O [4-73-i2, H2N-His-α-MePro-Glu-Gly-Thr-α-MePhe(2F)-Thr-Ser-Asp-Bip-α-MeBip-C(O)NH2] (H-H[αMeP]EGT[αMePhe(2-F)]TSD[Bip][X4]-NH2) | – | –
